Data from ChEMBL document CHEMBL3045426, “Synthesis, Antiviral and Antibacterial Activities of Isatin Mannich Bases” (Med Chem Res, 2005).
Values after ≈ are worked out from the molar mass of the structure shown.

test system: Vero; test: Cytotoxicity against Chlorocebus aethiops (African green monkey) Vero cells up to 62.5 ug/ml; assay type: cell-based; conditions: chlorocebus sabaeus

| Compound | Activity |
| --- | --- |
| COc1cc(Cc2cnc(/N=C3\C(=O)N(CN4CCN(c5c(F)cc6c(=O)c(C(=O)O)cn(C7CC7)c6c5F)CC4C)c4ccc(Cl)cc43)nc2N)cc(OC)c1OC (stereo not given) | Non-toxic |

test system: Mycobacterium tuberculosis; test: Antimycobacterial activity against Mycobacterium tuberculosis H37Rv ATCC 27294; assay type: functional; conditions: not given

| Compound | MIC |
| --- | --- |
| COc1cc(Cc2cnc(/N=C3\C(=O)N(CN4CCN(c5c(F)cc6c(=O)c(C(=O)O)cn(C7CC7)c6c5F)CC4C)c4ccc(Cl)cc43)nc2N)cc(OC)c1OC (stereo not given) | 3.13 µg/mL (≈ 3.77 µM) |

test system: Vibrio cholerae; test: Antimicrobial activity against Vibrio cholerae 01 after 18 to 20 hr by agar dilution method; assay type: functional; conditions: 1

| Compound | MIC |
| --- | --- |
| COc1cc(Cc2cnc(/N=C3\C(=O)N(CN4CCN(c5c(F)cc6c(=O)c(C(=O)O)cn(C7CC7)c6c5F)CC4C)c4ccc(Cl)cc43)nc2N)cc(OC)c1OC (stereo not given) | 0.61 µg/mL (≈ 0.736 µM) |

test system: Priestia megaterium; test: Antimicrobial activity against Bacillus megaterium after 18 to 20 hr by agar dilution method; assay type: functional; conditions: not given

| Compound | MIC |
| --- | --- |
| COc1cc(Cc2cnc(/N=C3\C(=O)N(CN4CCN(c5c(F)cc6c(=O)c(C(=O)O)cn(C7CC7)c6c5F)CC4C)c4ccc(Cl)cc43)nc2N)cc(OC)c1OC (stereo not given) | 0.019 µg/mL (≈ 0.0229 µM) |

test system: Enterobacter; test: Antimicrobial activity against Enterobacter after 18 to 20 hr by agar dilution method; assay type: functional; conditions: not given

| Compound | MIC |
| --- | --- |
| COc1cc(Cc2cnc(/N=C3\C(=O)N(CN4CCN(c5c(F)cc6c(=O)c(C(=O)O)cn(C7CC7)c6c5F)CC4C)c4ccc(Cl)cc43)nc2N)cc(OC)c1OC (stereo not given) | 0.019 µg/mL (≈ 0.0229 µM) |

test system: Citrobacter freundii; test: Antimicrobial activity against Citrobacter freundii after 18 to 20 hr by agar dilution method; assay type: functional; conditions: not given

| Compound | MIC |
| --- | --- |
| COc1cc(Cc2cnc(/N=C3\C(=O)N(CN4CCN(c5c(F)cc6c(=O)c(C(=O)O)cn(C7CC7)c6c5F)CC4C)c4ccc(Cl)cc43)nc2N)cc(OC)c1OC (stereo not given) | 0.0095 µg/mL (≈ 0.0115 µM) |

test system: Salmonella enteritidis; test: Antimicrobial activity against Salmonella enterica subsp. enterica serovar Enteritidis after 18 to 20 hr by agar dilution method; assay type: functional; conditions: not given

| Compound | MIC |
| --- | --- |
| COc1cc(Cc2cnc(/N=C3\C(=O)N(CN4CCN(c5c(F)cc6c(=O)c(C(=O)O)cn(C7CC7)c6c5F)CC4C)c4ccc(Cl)cc43)nc2N)cc(OC)c1OC (stereo not given) | 0.019 µg/mL (≈ 0.0229 µM) |

test system: Salmonella typhimurium; test: Antimicrobial activity against Salmonella enterica subsp. enterica serovar Typhimurium after 18 to 20 hr by agar dilution method; assay type: functional; conditions: not given

| Compound | MIC |
| --- | --- |
| COc1cc(Cc2cnc(/N=C3\C(=O)N(CN4CCN(c5c(F)cc6c(=O)c(C(=O)O)cn(C7CC7)c6c5F)CC4C)c4ccc(Cl)cc43)nc2N)cc(OC)c1OC (stereo not given) | 0.0381 µg/mL (≈ 0.0459 µM) |

test system: Proteus mirabilis; test: Antimicrobial activity against Proteus mirabilis after 18 to 20 hr by agar dilution method; assay type: functional; conditions: not given

| Compound | MIC |
| --- | --- |
| COc1cc(Cc2cnc(/N=C3\C(=O)N(CN4CCN(c5c(F)cc6c(=O)c(C(=O)O)cn(C7CC7)c6c5F)CC4C)c4ccc(Cl)cc43)nc2N)cc(OC)c1OC (stereo not given) | 0.0763 µg/mL (≈ 0.092 µM) |

test system: Proteus vulgaris; test: Antimicrobial activity against Proteus vulgaris after 18 to 20 hr by agar dilution method; assay type: functional; conditions: not given

| Compound | MIC |
| --- | --- |
| COc1cc(Cc2cnc(/N=C3\C(=O)N(CN4CCN(c5c(F)cc6c(=O)c(C(=O)O)cn(C7CC7)c6c5F)CC4C)c4ccc(Cl)cc43)nc2N)cc(OC)c1OC (stereo not given) | 0.0763 µg/mL (≈ 0.092 µM) |

test system: Edwardsiella tarda; test: Antimicrobial activity against Edwardsiella tarda after 18 to 20 hr by agar dilution method; assay type: functional; conditions: not given

| Compound | MIC |
| --- | --- |
| COc1cc(Cc2cnc(/N=C3\C(=O)N(CN4CCN(c5c(F)cc6c(=O)c(C(=O)O)cn(C7CC7)c6c5F)CC4C)c4ccc(Cl)cc43)nc2N)cc(OC)c1OC (stereo not given) | 0.0763 µg/mL (≈ 0.092 µM) |

test system: Escherichia coli; test: Antimicrobial activity against Escherichia coli NCTC 10418 after 18 to 20 hr by agar dilution method; assay type: functional; conditions: not given

| Compound | MIC |
| --- | --- |
| COc1cc(Cc2cnc(/N=C3\C(=O)N(CN4CCN(c5c(F)cc6c(=O)c(C(=O)O)cn(C7CC7)c6c5F)CC4C)c4ccc(Cl)cc43)nc2N)cc(OC)c1OC (stereo not given) | 0.0763 µg/mL (≈ 0.092 µM) |

test system: Salmonella typhi; test: Antimicrobial activity against Salmonella enterica subsp. enterica serovar Typhi after 18 to 20 hr by agar dilution method; assay type: functional; conditions: not given

| Compound | MIC |
| --- | --- |
| COc1cc(Cc2cnc(/N=C3\C(=O)N(CN4CCN(c5c(F)cc6c(=O)c(C(=O)O)cn(C7CC7)c6c5F)CC4C)c4ccc(Cl)cc43)nc2N)cc(OC)c1OC (stereo not given) | 0.019 µg/mL (≈ 0.0229 µM) |

test system: Salmonella paratyphi; test: Antimicrobial activity against Salmonella enterica subsp. enterica serovar Paratyphi A after 18 to 20 hr by agar dilution method; assay type: functional; conditions: not given

| Compound | MIC |
| --- | --- |
| COc1cc(Cc2cnc(/N=C3\C(=O)N(CN4CCN(c5c(F)cc6c(=O)c(C(=O)O)cn(C7CC7)c6c5F)CC4C)c4ccc(Cl)cc43)nc2N)cc(OC)c1OC (stereo not given) | 0.153 µg/mL (≈ 0.184 µM) |

test system: Vibrio parahaemolyticus; test: Antimicrobial activity against Vibrio parahaemolyticus after 18 to 20 hr by agar dilution method; assay type: functional; conditions: not given

| Compound | MIC |
| --- | --- |
| COc1cc(Cc2cnc(/N=C3\C(=O)N(CN4CCN(c5c(F)cc6c(=O)c(C(=O)O)cn(C7CC7)c6c5F)CC4C)c4ccc(Cl)cc43)nc2N)cc(OC)c1OC (stereo not given) | 0.0763 µg/mL (≈ 0.092 µM) |

test system: Vibrio cholerae; test: Antimicrobial activity against Vibrio cholerae 0139 after 18 to 20 hr by agar dilution method; assay type: functional; conditions: 139

| Compound | MIC |
| --- | --- |
| COc1cc(Cc2cnc(/N=C3\C(=O)N(CN4CCN(c5c(F)cc6c(=O)c(C(=O)O)cn(C7CC7)c6c5F)CC4C)c4ccc(Cl)cc43)nc2N)cc(OC)c1OC (stereo not given) | 0.153 µg/mL (≈ 0.184 µM) |

test system: Vibrio fluvialis; test: Antimicrobial activity against Vibrio fluvialis after 18 to 20 hr by agar dilution method; assay type: functional; conditions: not given

| Compound | MIC |
| --- | --- |
| COc1cc(Cc2cnc(/N=C3\C(=O)N(CN4CCN(c5c(F)cc6c(=O)c(C(=O)O)cn(C7CC7)c6c5F)CC4C)c4ccc(Cl)cc43)nc2N)cc(OC)c1OC (stereo not given) | 0.019 µg/mL (≈ 0.0229 µM) |

test system: Vibrio mimicus; test: Antimicrobial activity against Vibrio mimicus after 18 to 20 hr by agar dilution method; assay type: functional; conditions: not given

| Compound | MIC |
| --- | --- |
| COc1cc(Cc2cnc(/N=C3\C(=O)N(CN4CCN(c5c(F)cc6c(=O)c(C(=O)O)cn(C7CC7)c6c5F)CC4C)c4ccc(Cl)cc43)nc2N)cc(OC)c1OC (stereo not given) | 0.019 µg/mL (≈ 0.0229 µM) |

test system: Pseudomonas aeruginosa; test: Antimicrobial activity against Pseudomonas aeruginosa after 18 to 20 hr by agar dilution method; assay type: functional; conditions: not given

| Compound | MIC |
| --- | --- |
| COc1cc(Cc2cnc(/N=C3\C(=O)N(CN4CCN(c5c(F)cc6c(=O)c(C(=O)O)cn(C7CC7)c6c5F)CC4C)c4ccc(Cl)cc43)nc2N)cc(OC)c1OC (stereo not given) | 0.019 µg/mL (≈ 0.0229 µM) |

test system: Staphylococcus aureus; test: Antimicrobial activity against Staphylococcus aureus after 18 to 20 hr by agar dilution method; assay type: functional; conditions: not given

| Compound | MIC |
| --- | --- |
| COc1cc(Cc2cnc(/N=C3\C(=O)N(CN4CCN(c5c(F)cc6c(=O)c(C(=O)O)cn(C7CC7)c6c5F)CC4C)c4ccc(Cl)cc43)nc2N)cc(OC)c1OC (stereo not given) | 0.019 µg/mL (≈ 0.0229 µM) |

test system: Morganella morganii; test: Antimicrobial activity against Morganella morganii after 18 to 20 hr by agar dilution method; assay type: functional; conditions: not given

| Compound | MIC |
| --- | --- |
| COc1cc(Cc2cnc(/N=C3\C(=O)N(CN4CCN(c5c(F)cc6c(=O)c(C(=O)O)cn(C7CC7)c6c5F)CC4C)c4ccc(Cl)cc43)nc2N)cc(OC)c1OC (stereo not given) | 0.0381 µg/mL (≈ 0.0459 µM) |

test system: Shigella boydii; test: Antimicrobial activity against Shigella boydii after 18 to 20 hr by agar dilution method; assay type: functional; conditions: not given

| Compound | MIC |
| --- | --- |
| COc1cc(Cc2cnc(/N=C3\C(=O)N(CN4CCN(c5c(F)cc6c(=O)c(C(=O)O)cn(C7CC7)c6c5F)CC4C)c4ccc(Cl)cc43)nc2N)cc(OC)c1OC (stereo not given) | 0.0381 µg/mL (≈ 0.0459 µM) |

test system: Plesiomonas; test: Antimicrobial activity against Plesiomonas after 18 to 20 hr by agar dilution method; assay type: functional; conditions: not given

| Compound | MIC |
| --- | --- |
| COc1cc(Cc2cnc(/N=C3\C(=O)N(CN4CCN(c5c(F)cc6c(=O)c(C(=O)O)cn(C7CC7)c6c5F)CC4C)c4ccc(Cl)cc43)nc2N)cc(OC)c1OC (stereo not given) | 0.0381 µg/mL (≈ 0.0459 µM) |

test system: Shigella sonnei; test: Antimicrobial activity against Shigella sonnei after 18 to 20 hr by agar dilution method; assay type: functional; conditions: not given

| Compound | MIC |
| --- | --- |
| COc1cc(Cc2cnc(/N=C3\C(=O)N(CN4CCN(c5c(F)cc6c(=O)c(C(=O)O)cn(C7CC7)c6c5F)CC4C)c4ccc(Cl)cc43)nc2N)cc(OC)c1OC (stereo not given) | 0.152 µg/mL (≈ 0.183 µM) |

test system: Klebsiella pneumoniae; test: Antimicrobial activity against Klebsiella pneumoniae after 18 to 20 hr by agar dilution method; assay type: functional; conditions: not given

| Compound | MIC |
| --- | --- |
| COc1cc(Cc2cnc(/N=C3\C(=O)N(CN4CCN(c5c(F)cc6c(=O)c(C(=O)O)cn(C7CC7)c6c5F)CC4C)c4ccc(Cl)cc43)nc2N)cc(OC)c1OC (stereo not given) | 2.44 µg/mL (≈ 2.94 µM) |

test system: Klebsiella pneumoniae; test: Antimicrobial activity against Klebsiella pneumoniae subsp. ozaenae after 18 to 20 hr by agar dilution method; assay type: functional; conditions: not given

| Compound | MIC |
| --- | --- |
| COc1cc(Cc2cnc(/N=C3\C(=O)N(CN4CCN(c5c(F)cc6c(=O)c(C(=O)O)cn(C7CC7)c6c5F)CC4C)c4ccc(Cl)cc43)nc2N)cc(OC)c1OC (stereo not given) | 0.0381 µg/mL (≈ 0.0459 µM) |

test system: Mycobacterium tuberculosis; test: Antimycobacterial activity against Mycobacterium tuberculosis H37Rv ATCC 27294 at 6.25 ug/ml by MABA; assay type: functional; conditions: not given

| Compound | inhibition at 6.25 µg/mL |
| --- | --- |
| COc1cc(Cc2cnc(/N=C3\C(=O)N(CN4CCN(c5c(F)cc6c(=O)c(C(=O)O)cn(C7CC7)c6c5F)CC4C)c4ccc(Cl)cc43)nc2N)cc(OC)c1OC (stereo not given) | 100% |

test system: not listed separately; test: Cytotoxicity against Homo sapiens (human) CEM cells after 5 days by MTT assay; assay type: cell-based; conditions: CEM cells (CCRF-CEM)

| Compound | CC50 at 120 h |
| --- | --- |
| COc1cc(Cc2cnc(/N=C3\C(=O)N(CN4CCN(c5c(F)cc6c(=O)c(C(=O)O)cn(C7CC7)c6c5F)CC4C)c4ccc(Cl)cc43)nc2N)cc(OC)c1OC (stereo not given) | 67 µg/mL (≈ 80.8 µM) |

test system: Human immunodeficiency virus 1; test: Antiviral activity against Human immunodeficiency virus 1 IIIB infected CEM cells assessed as protection against viral infection after 6 days by XTT assay; assay type: functional, CCRF-CEM; parameters: concentration or dose not given beside the values; conditions: not given

| Compound | Activity |
| --- | --- |
| COc1cc(Cc2cnc(/N=C3\C(=O)N(CN4CCN(c5c(F)cc6c(=O)c(C(=O)O)cn(C7CC7)c6c5F)CC4C)c4ccc(Cl)cc43)nc2N)cc(OC)c1OC (stereo not given) | 20.04% |

test system: Human immunodeficiency virus 1; test: Antiviral activity against Human immunodeficiency virus 1 IIIB infected CEM cells assessed as inhibition of virus-induced cytopathicity after 6 days by XTT assay; assay type: functional, organism-based; conditions: CCRF-CEM, 144 h

| Compound | EC50 |
| --- | --- |
| COc1cc(Cc2cnc(/N=C3\C(=O)N(CN4CCN(c5c(F)cc6c(=O)c(C(=O)O)cn(C7CC7)c6c5F)CC4C)c4ccc(Cl)cc43)nc2N)cc(OC)c1OC (stereo not given) | > 67 µg/mL |
